# Reference: patent US9351963B2, “Defensin-like molecules as novel antimicrobial agents” (UNIVERSITY OF MARYLAND, BALTIMORE, priority 2010, dated 2016)
# Assays:
# [1] = test system: Escherichia coli ATCC 25922; experiment: 96-well turbidimetric antibacterial killing assay, E. coli; assay type: cell-based; conditions: E. coli ATCC 25922, 120 min exposure
# Procedure: The antibacterial activity of defensin mimetics against Staphylococcus aureus ATCC 29213 and Escherichia coli 25922 was carried out in a 96-well turbidimetric assay essentially as described (Ericksen, B., Wu, Z., Lu, W., and Lehrer, R. I. (2005) Antimicrob Agents Chemother 49, 269-275) with the following modifications: compounds were exposed for 30 min to […] prior to addition of […] in 10 mM phosphate buffer containing 5% DMSO. Bacterial growth was monitored for 12 hours and data were analyzed as described (Ericksen, et al). Determination of MICs was performed by Micromyx, LLC (Kalamazoo, Mich.) according to CLSI standards (CLSI. (2009) Methods for Dilution Antimicrobial Susceptibility Tests for Bacteria That Grow Aerobically; Approved Standard—Eighth Edition.)
# The inventors have previously reported on the antibacterial activity of HNP1 and all of its structurally uncompromised single alanine mutants against S. aureus (Wei, G., Pazgier, M., de Leeuw, E., Rajabi, M., Li, J., Zou, G., Jung, G., Yuan, W., Lu, W. Y., Lehrer, R. I., and Lu, W. J Biol Chem 285, 16275-16285). […] If these residues are indeed important for Lipid II binding, one would expect that replacement by alanine will not affect killing of Gram-negative bacteria. […] In particular, FIG. 12 depicts killing of E. coli by HNP-1 Lipid II single alanine mutants. Survival curves of E. coli ATCC 25922 exposed to HNP-1 or HNP-1 single alanine mutants at concentrations varying two-fold from […]. Bacteria were exposed to defensin peptides for 120 min. Each curve is the mean of two separate experiments (±S.D.). Points scored as zero survival could not be plotted.
# [2] = test system: Staphylococcus aureus ATCC 29213; conditions: previously reported (Wei et al., J Biol Chem 285); cited from earlier work
# [3] = Surface Plasmon Resonance binding to immobilized 3-Lipid II (BIAcore); conditions: SPR, 10 μM, room temperature, 40 RUs 3-Lipid II
# Procedure: Short-chain water-soluble Lipid II containing a lipid tail of three isoprene units was generated and purified essentially as described (Breukink, E., van Heusden, H. E., Vollmerhaus, P. J., Swiezewska, E., Brunner, L., Walker, S., Heck, A. J., and de Kruijff, B. (2003) J Biol Chem 278, 19898-19903). Typically, M. flavus vesicles (120 μmol lipid-Pi) were incubated together with 500 μmol UDP-GlcNAc, 500 μmol UDP-MurNAC-pentapeptide and 400 μmol farnesyl phosphate (3-P) in 100 mM Tris-HCl pH 8.0, 5 mM MgCl2. The incubation lasted two hours at room temperature for 3-P. The synthesis of 3-Lipid II was followed using RP-8 reversed phase TLC (Merck) developed in 75% methanol. For purification, the membranes were removed by centrifugation at 40,000×g and the supernatant was collected and loaded on a C18 HPLC column and eluted with a linear gradient from 50 mM ammonium bicarbonate to 100% methanol in 30 minutes. Farnesyl-Lipid II (3-Lipid II) eluted at approximately 60% methanol. Its identity was confirmed by mass spectroscopy.
# Surface Plasmon Resonance binding experiments were carried out on a BIAcore T100 system (BIAcore Inc., Piscataway, N.Y.) at 25° C. The assay buffer was 10 mM HEPES, 150 mM NaCl, 0.05% surfactant P20, pH 7.4 (±3 mM EDTA) supplemented with 10% DMSO. […] For initial determination of binding, defensin mimetics were introduced into the flow-cells (30 μl/min) in the running buffer at 10 μM. Resonance signals were corrected for nonspecific binding by subtracting the background of the control flow-cell. After each analysis, the sensor chip surfaces were regenerated with 50 mM NaOH for 30 s at a flow rate 100 μl/min, and equilibrated with the buffer prior to next injection. For binding kinetics studies, binding isotherms were analyzed with manufacturer-supplied software for BIAcore T100.
Substance,Bactericidal activity against E. coli relative to wild-type HNP-1 [1],Killing of S. aureus by HNP-1 single alanine mutants [2],Binding of HNP-1 single alanine mutants to Lipid II compared to wild-type HNP-1 [3]
"Ile20: HNP-1 single alanine mutant, Ile20 replaced by alanine",comparable to the wild-type peptide,severely compromised,significant reduction of binding
"Leu25: HNP-1 single alanine mutant, Leu25 replaced by alanine",comparable to the wild-type peptide,severely compromised,significant reduction of binding
